Assay results as given in PMC5424428, “Characteristics of L-citrulline transport through blood-brain barrier in the brain capillary endothelial cell line (TR-BBB cells)” (Journal of Biomedical Science, 2017).
“And” between values parts separate entries of the source, which are not always exact repeats. Equal values may be shown once. “Also recorded” adds a separate entry of the source. Read-outs that look alike come from different tables or passages of the source.

Assays:
[1] = tested on: TR-BBB cells; assay: Inhibition of [14C]L-citrulline uptake in TR-BBB cells by unlabeled amino acids, transporter inhibitors and drugs; assay type: cell-based, rat; settings: for Uptake of [14C]L-citrulline (% of control) / activity at 2000 µM / activity at 20000 µM / IC50 / Ki: 5 min; for activity at 2000 µM / activity at 20000 µM / IC50: Rattus norvegicus; for Effect on [14C]L-citrulline uptake: unlabeled compound present; for Decrease of [14C]L-citrulline uptake: discussion of Table 3; for Mode of inhibition of [14C]L-citrulline uptake / Ki: Lineweaver-Burk plot; for Ki: 300 μM inhibitor
Description: (§1) The TR-BBB cells established from transgenic rats harboring the temperature-sensitive simian virus 40 large T-antigen, an in vitro BBB model, were cultured at 33 °C as described previously (21). TR-BBB cells were received from Professor Tetsuya Terasaki (Tohoku University, Japan) and were cultured with Dulbecco’s modified Eagle’s medium (Invitrogen, San Diego, CA), supplemented with 10% fetal bovine serum, 100 U/mL penicillin, 100 μg/mL streptomycin (Invitrogen, San Diego, CA) and 15 μg/L endothelial cell growth factor (Roche, Mannheim, Germany) at 33 °C in a humidified atmosphere of 5% CO2/air. On rat tail collagen type I-coated 24 well culture plates (IWAKI, Tokyo, Japan) initial seeding was carried out at 1 × 10^5 cells/well for the uptake study. After incubation for 2 days at 33 °C, the cultures became confluent and then they were used in the transport study. L-Citrulline free medium was used all experiments except for experiments on saturation kinetics of [^14C]L-citrulline uptake (Fig. 2), Lineweaver-Burk plots for [^14C]L-citrulline uptake (Fig. 4), or inhibitory effect of L-amino acids as a control (Table 2).
(§2) The [^14C] L-citrulline uptake study was performed according to the previous report. Briefly, extracellular fluid (ECF) buffer containing [^14C]L-citrulline (44.4 μM) in the presence or absence of unlabeled inhibitors was added to the TR-BBB cells and then incubated at pH 7.4 and 37 °C for the designated time (5 min). Uptake was terminated by the addition of ice-cold ECF buffer. A Na^+ free transport medium was prepared by using LiCl, choline chloride, sodium gluconate and KHCO3 instead of NaCl and NaHCO3, respectively. The cells were then solubilized by incubation overnight in 750 μL of 1 N NaOH at room temperature, and the measurement of radioactivity was performed in a liquid scintillation counter (LS6500; Beckman, Fullerton, CA). Cell to medium ratio (μL/mg protein) was calculated as follows: the radioactivity (dpm/μL) in the sample per milligram cell protein (dpm/mg protein).
To analyze the competitive nature of L-dopa and gabapentin for [^14C]L-citrulline uptake, Lineweaver-Burk plots were generated. The inhibitory constant (K i) was calculated from Eq. (2):2 V=Vmax⋅C/Km⋅1+I/Ki+C where I corresponds to the concentration of L-dopa or gabapentin, respectively.

[2] = tested on: TR-BBB cells; assay: [14C]L-citrulline uptake study in TR-BBB cells (time course, ion dependence, saturation kinetics); assay type: in vitro ADME, rat; settings: for Uptake of [14C]L-citrulline (% of control): ion dependence: Na+ and/or Cl- replaced in the uptake buffer by the named salt, mean ± S.E.M.
Description: as §1, §2
For kinetic studies, the Michaelis-Menten constant (K m) and the maximum uptake rate (V max) of [^14C] L-citrulline were estimated from Eq. (1):1 V=Vmax⋅C/Km+C
Where V and C are the initial uptake rate of [^14C] L-citrulline at 5 min and the concentration of L-citrulline, and V max is the maximum uptake rate for the saturable component.

[3] = Table 2, L-amino acid 2 mM, pH 7.4, 37 °C, mean ± S.E.M.
[4] = Table 2, L-amino acid 2 mM, pH 7.4, 37 °C, mean ± S.E.M., read-out: Uptake of [14C]L-citrulline (% of control)
[5] = Table 4, drug 2 mM, pH 7.4, 37 °C, mean ± S.E.M., read-out: Uptake of [14C]L-citrulline (% of control)
[6] = Table 3, transporter inhibitor 2 mM, pH 7.4, 37 °C, mean ± S.E.M.
[7] = TR-BBB cells, pH 7.4, 37 °C, read-out: IC50 for inhibition of [14C]L-citrulline uptake
[8] = Table 2, L-amino acid 20 mM, pH 7.4, 37 °C, mean ± S.E.M.
[9] = pH 7.4, read-out: Uptake of [14C]L-citrulline (% of control), Table 2, L-amino acid 2 mM, pH 7.4, 37 °C, mean ± S.E.M.
[10] = pH 7.4, read-out: IC50 for inhibition of [14C]L-citrulline uptake
[11] = Table 4, drug 0.5 mM, pH 7.4, 37 °C, mean ± S.E.M.

CC(C)[C@H](N)C(=O)O [L-Valine]
Uptake of [14C]L-citrulline (% of control) [1, 3]: 31.5 ± 1.4 % of control

N[C@@H](CS)C(=O)O [L-Cysteine]
activity at 2000 µM [1, 4]: 48.4 ± 2.6%
Effect on [14C]L-citrulline uptake ([1]; TR-BBB cells): significantly inhibited

NCCS(=O)(=O)O [Taurine]
activity at 2000 µM [1, 5]: 90.5 ± 4.4%
Effect on [14C]L-citrulline uptake ([1]; TR-BBB cells): no significant effects

CN1C(=O)C=CC1=O [Methylmaleimide, L-methylmaleimide]
Effect on [14C]L-citrulline uptake ([1]; TR-BBB cells): no inhibition effect
Uptake of [14C]L-citrulline (% of control) [1, 6]: 103.2 ± 10.1 % of control

[Cl-].[Li+] [LiCl]
Uptake of [14C]L-citrulline (% of control) ([2]; pH 7.4, 37 °C, 5 min): 116.2 ± 5.2 % of control

NC1(C(=O)O)CC2CCC1C2 (centres unmarked) [BCH, 2-aminobicyclo-(2,2,1)-heptane-2-carboxylic acid]
activity at 2000 µM ([1]; Table 3, transporter inhibitor 2 mM, pH 7.4, 37 °C, mean ± S.E.M., read-out: Uptake of [14C]L-citrulline (% of control)): 25.3 ± 4.4%
activity at 20000 µM ([1]; Table 3, transporter inhibitor 20 mM, pH 7.4, 37 °C, mean ± S.E.M., read-out: Uptake of [14C]L-citrulline (% of control)): 28.1 ± 11.6%
Effect on [14C]L-citrulline uptake ([1]; TR-BBB cells): markedly inhibited
Decrease of [14C]L-citrulline uptake [1]: about 75%

NCCc1ccc(O)c(O)c1 [Dopamine]
activity at 2000 µM [1, 5]: 110 ± 2.7%
Effect on [14C]L-citrulline uptake ([1]; TR-BBB cells): no effect; also recorded: no significant effects

N[C@@H](Cc1ccccc1)C(=O)O [L-Phenylalanine]
IC50 [1, 7]: 68.9 µM
Effect on [14C]L-citrulline uptake ([1]; TR-BBB cells): strongly inhibited
Uptake of [14C]L-citrulline (% of control) [1, 3]: 13.7 ± 1.8 % of control
Uptake of [14C]L-citrulline (% of control) [1, 8]: 13.4 ± 1.4 % of control

C[N+](C)(C)CCO.[Cl-] [Choline Chloride, choline chloride]
Uptake of [14C]L-citrulline (% of control) ([2]; pH 7.4, 37 °C, 5 min): 83.3 ± 5.7 % of control

CC(C)C[C@H](N)C(=O)O [L-Leucine]
Uptake of [14C]L-citrulline (% of control) [1, 3]: 49.4 ± 5.8 % of control
Uptake of [14C]L-citrulline (% of control) [1, 8]: 17.2 ± 3.9 % of control

N[C@@H](CO)C(=O)O [L-Serine]
activity at 2000 µM [1, 4]: 79.7 ± 2.5%
Effect on [14C]L-citrulline uptake ([1]; TR-BBB cells): significantly inhibited

NC(=O)NCCC[C@H](N)C(=O)O [L-Citrulline]
Time-course of [14C]L-citrulline uptake ([2]; 44.4 μM, 37 °C, ECF buffer): linear for 5 min
Ion dependence of [14C]L-citrulline uptake ([2]; absence of Na+ or Cl- in the uptake buffer): no significant difference
Michaelis-Menten constant Km1 of [14C]L-citrulline uptake ([2]; first (Km1) of two saturable components, 0–5 mM unlabeled L-citrulline, 5 min, pH 7.4, 37 °C): 30.9 ± 1.0 µM and 30.9 µM
Vmax1 of [14C]L-citrulline uptake ([2]; first saturable component, 5 min, pH 7.4, 37 °C): 185 nmol/mg/min
Michaelis-Menten constant Km2 of [14C]L-citrulline uptake ([2]; second (Km2) of two saturable components, 0–5 mM unlabeled L-citrulline, 5 min, pH 7.4, 37 °C): 1.69 ± 0.43 mM and 1.69 mM
Vmax2 of [14C]L-citrulline uptake ([2]; second saturable component, 5 min, pH 7.4, 37 °C): 3.19 µmol/mg/min
activity at 2000 µM [1, 9]: 36 ± 2.1%

NCC1(CC(=O)O)CCCCC1 [Gabapentin]
Mode of inhibition of [14C]L-citrulline uptake [1]: competitively inhibited
Ki ([1]; pH 7.4, 37 °C): 679 µM
IC50 [1, 10]: 223 µM
Effect on [14C]L-citrulline uptake ([1]; TR-BBB cells): strongly inhibited; also recorded: significantly inhibited
Uptake of [14C]L-citrulline (% of control) [1, 11]: 45.0 ± 2.52 % of control
Uptake of [14C]L-citrulline (% of control) ([1]; Table 4, drug 5 mM, pH 7.4, 37 °C, mean ± S.E.M.): 29.6 ± 2.73 % of control

N[C@@H](Cc1ccc(O)c(O)c1)C(=O)O [L-Dopa]
Mode of inhibition of [14C]L-citrulline uptake [1]: competitively inhibited
Ki ([1]; pH 7.4, 37 °C): 486 µM
IC50 [1, 7]: 501 µM
Effect on [14C]L-citrulline uptake ([1]; TR-BBB cells): strongly inhibited; also recorded: significantly inhibited
Uptake of [14C]L-citrulline (% of control) [1, 11]: 52.1 ± 6.6 % of control
Uptake of [14C]L-citrulline (% of control) ([1]; Table 4, drug 2 mM, pH 7.4, 37 °C, mean ± S.E.M.): 21.6 ± 2.8 % of control

N[C@@H](CCC(=O)O)C(=O)O [L-Glutamate]
activity at 2000 µM ([1]; pH 7.4, read-out: Uptake of [14C]L-citrulline (% of control)): 103 ± 7.8%
Effect on [14C]L-citrulline uptake ([1]; TR-BBB cells): did not inhibit

N=C(N)NCCC[C@H](N)C(=O)O [L-Arginine]
IC50 [1, 10]: 33400 µM
activity at 2000 µM [1, 9]: 59.9 ± 6.6%
activity at 20000 µM ([1]; pH 7.4, read-out: Uptake of [14C]L-citrulline (% of control), Table 2, L-amino acid 20 mM, pH 7.4, 37 °C, mean ± S.E.M.): 53.2 ± 4.4%
Effect on [14C]L-citrulline uptake ([1]; TR-BBB cells): significantly inhibited

NC(=O)CC[C@H](N)C(=O)O [L-Glutamine]
activity at 2000 µM [1, 4]: 37.5 ± 1.3%

NC(N)=NCCCC[C@H](N)C(=O)O [Homoarginine]
Effect on [14C]L-citrulline uptake ([1]; TR-BBB cells): no inhibition effect
Uptake of [14C]L-citrulline (% of control) [1, 6]: 95.98 ± 13.8 % of control

COc1ccc2c3c([nH]c2c1)C(C)=NCC3 [Harmaline]
Decrease of [14C]L-citrulline uptake [1]: about 40%

C=C[C@H]1C[N@@]2CC[C@H]1C[C@@H]2[C@@H](O)c1ccnc2ccc(OC)cc12 [Qunidine, Quinidine]
Uptake of [14C]L-citrulline (% of control) ([1]; 500 µM): 52.5 ± 3.0 % of control
Effect on [14C]L-citrulline uptake ([1]; TR-BBB cells): significantly inhibited

O=C([O-])[C@H](O)[C@@H](O)[C@H](O)[C@H](O)CO.[Na+] [Sodium gluconate, sodium gluconate]
Uptake of [14C]L-citrulline (% of control) ([2]; pH 7.4, 37 °C, 5 min): 103.9 ± 6.8 % of control

Nc1c2c(nc3ccccc13)CCCC2 [tacrine]
Effect on [14C]L-citrulline uptake ([1]; TR-BBB cells): no significant inhibition effect

N[C@@H](CC(=O)O)C(=O)O [L-Aspatate, L-aspartate]
Effect on [14C]L-citrulline uptake ([1]; TR-BBB cells): did not inhibit
Uptake of [14C]L-citrulline (% of control) [1, 3]: 101.5 ± 8.6 % of control

CNC(C)(C)C(=O)O [MeAIB, N-(methylamino) isobutyric acid]
Effect on [14C]L-citrulline uptake ([1]; TR-BBB cells): no inhibition effect
Uptake of [14C]L-citrulline (% of control) [1, 6]: 99.8 ± 6.3 % of control

C[C@H](N)C(=O)O [L-Alanine]
Effect on [14C]L-citrulline uptake ([1]; TR-BBB cells): significantly inhibited
Uptake of [14C]L-citrulline (% of control) [1, 3]: 73.0 ± 6.4 % of control

NCCCC[C@H](N)C(=O)O [L-Lysine]
Effect on [14C]L-citrulline uptake ([1]; TR-BBB cells): significantly inhibited
Uptake of [14C]L-citrulline (% of control) [1, 3]: 74.5 ± 9.0 % of control
Uptake of [14C]L-citrulline (% of control) [1, 8]: 66.78 ± 2.1 % of control
